Laboratory results from paper PMC8016998, “Identification of potential therapeutic antimicrobial peptides against Acinetobacter baumannii in a mouse model of pneumonia” (Scientific Reports, 2021).
Like-named read-outs stand apart in the source and are kept apart here. Values belong to the sequence of their own block, whether it stands above or below them. No end group written: not given here.

Columns and labels:
[1] = tested on: MDRAB clinical strain D29; type: cell-based, Acinetobacter baumannii
Method: (§2) MBC were determined by extending the MIC procedure in sterilized 96-well polypropylene microtiter plates according to the broth microdilution guidelines of the Clinical and Laboratory Standards Institute with some modification[47]. […] In addition, 10 µL was drawn from each well with no visible turbidity onto LB agar plates and incubated for 24 h at 37 °C. The lowest concentration showing no visible growth on agar subculture was used as the MBC value. All experiments were performed in triplicate.

[2] = tested on: MDRAB clinical strain AL87; type: cell-based, Acinetobacter baumannii
Method: as §2

[3] = tested on: MDRAB clinical strain Y92; type: cell-based, Acinetobacter baumannii
Method: as §2

[4] = tested on: MDRAB clinical strain AN10; type: cell-based, Acinetobacter baumannii
Method: as §2

[5] = tested on: Acinetobacter baumannii 19,606; type: cell-based
Method: as §2

[6] = tested on: MDRAB clinical strain AE6; type: cell-based, Acinetobacter baumannii
MDRAB clinical strain K2 = type: cell-based, Acinetobacter baumannii
Method: as §2

[7] = tested on: MDRAB clinical strain AF93; type: cell-based, Acinetobacter baumannii
Method: as §2

[8] = tested on: MDRAB clinical strain U95; type: cell-based, Acinetobacter baumannii
[9] = tested on: MDRAB clinical strain AE5; type: cell-based, Acinetobacter baumannii
[10] = tested on: MDRAB clinical strain AF12; type: cell-based, Acinetobacter baumannii
Method: as §2

[11] = tested on: MDRAB clinical strain J49; type: cell-based, Acinetobacter baumannii
[12] = tested on: MDRAB clinical strain AZ93; type: cell-based, Acinetobacter baumannii
Method: as §2

[13] = tested on: MDRAB clinical strain O59; type: cell-based, Acinetobacter baumannii
Method: as §2

[14] = tested on: MDRAB clinical strain W11; type: cell-based, Acinetobacter baumannii
MDRAB strain MO91 = type: cell-based, Acinetobacter baumannii; settings: 24 h
Method: (§1) All AMPs and TP4 derivatives used in this study were synthesized by Kelowna International Scientific Inc. (Taipei City, Taiwan) with more than 95% purity, and their molecular weights were verified by mass spectrum analysis. MBC were determined by extending the MIC procedure in sterilized 96-well polypropylene microtiter plates according to the broth microdilution guidelines of the Clinical and Laboratory Standards Institute with some modification. Briefly, 5 × 10^5 CFU/mL of bacteria were inoculated in LB medium containing AMPs or antibiotic at final concentrations ranging from 512 to 1 μg/mL (from serial twofold dilutions). After incubation for 24 h at 37 °C, the lowest concentration showing no visible growth was used as the MIC value. In addition, 10 µL was drawn from each well with no visible turbidity onto LB agar plates and incubated for 24 h at 37 °C. The lowest concentration showing no visible growth on agar subculture was used as the MBC value. All experiments were performed in triplicate.

MDRAB strain BF50 = type: cell-based, Acinetobacter baumannii; settings: 24 h
Method: as §1

[15] = tested on: MDRAB clinical strain AG51; type: cell-based, Acinetobacter baumannii
Method: as §2

[16] = tested on: MDRAB clinical strain L87; type: cell-based, Acinetobacter baumannii
Method: as §2

[17] = tested on: MDRAB clinical strain AF11; type: cell-based, Acinetobacter baumannii
Method: as §2

[18] = tested on: MDRAB clinical strain AK61; type: cell-based, Acinetobacter baumannii
Method: as §2

[19] = tested on: MDRAB clinical strain AK29; type: cell-based, Acinetobacter baumannii
Method: as §2

[20] = tested on: MDRAB clinical strain AS40; type: cell-based, Acinetobacter baumannii
Method: as §2

[21] = tested on: Acinetobacter baumannii 17,978; type: cell-based;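 also: CLSI broth microdilution in 96-well polypropylene plates, MBC taken as lowest concentration giving no growth when clear wells were subcultured on LB agar for 24 h at 37 °C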
[22] = tested on: MDRAB clinical strain U80; type: cell-based, Acinetobacter baumannii
[23] = tested on: MDRAB clinical strain AO80; type: cell-based, Acinetobacter baumannii
Method: as §2

[24] = 10 µL from wells without turbidity onto LB agar, 24 h at 37 °C, triplicate

MIC ([1]; 24 h): 32 µg/mL | MIC ([2]; 24 h): 16 µg/mL | MIC ([3]; 24 h): 16 µg/mL | MIC ([4]; 24 h): 8 µg/mL | MIC ([5]; 19,606, 24 h): 16 µg/mL | MIC ([6]; 24 h): 16 µg/mL | MIC (MDRAB clinical strain K2; 24 h): 16 µg/mL | MIC ([7]; 24 h): 16 µg/mL | MIC ([8]; 24 h): 32 µg/mL | MIC ([9]; 24 h): 16 µg/mL | MIC ([10]; 24 h): 16 µg/mL | MIC ([11]; 24 h): 16 µg/mL | MIC ([12]; 24 h): 16 µg/mL | MIC ([13]; 24 h): 32 µg/mL | MIC ([14]; 24 h): 16 µg/mL | MIC (MDRAB strain MO91): 16 µg/mL | MIC (MDRAB strain BF50): 16 µg/mL | MIC ([15]; 24 h): 8 µg/mL | MIC ([16]; 24 h): 32 µg/mL | MIC ([17]; 24 h): 16 µg/mL | MIC ([18]; 24 h): 32 µg/mL | MIC ([19]; 24 h): 16 µg/mL | MIC ([20]; 24 h): 32 µg/mL | MIC ([21]; 17,978, 24 h): 16 µg/mL | MIC ([22]; 24 h): 32 µg/mL | MIC ([23]; 24 h): 32 µg/mL
Sequence: FIHHIIGGLFSAGKAIHRLIRRRRR [TP4]
MBC ([1]; 24 h): 32 µg/mL | MBC ([2]; 24 h): 16 µg/mL | MBC ([3]; 24 h): 16 µg/mL | MBC ([4]; 24 h): 8 µg/mL | MBC ([5]; 19,606, 24 h): 16 µg/mL | MBC ([6]; 24 h): 16 µg/mL | MBC (MDRAB clinical strain K2; 24 h): 32 µg/mL | MBC ([7]; 24 h): 16 µg/mL | MBC ([8]; 24 h): 64 µg/mL | MBC ([9]; 24 h): 32 µg/mL | MBC ([10]; 24 h): 16 µg/mL | MBC ([11]; 24 h): 16 µg/mL | MBC ([12]; 24 h): 16 µg/mL | MBC ([13]; 24 h): 32 µg/mL | MBC ([14]; 24 h): 16 µg/mL | MBC (MDRAB strain MO91): 32 µg/mL | MBC (MDRAB strain BF50): 16 µg/mL | MBC ([15]; 24 h): 16 µg/mL | MBC ([16]; 24 h): 32 µg/mL | MBC ([17]; 24 h): 16 µg/mL | MBC ([18]; 24 h): 32 µg/mL | MBC ([19]; 24 h): 16 µg/mL | MBC ([20]; 24 h): 32 µg/mL | MBC ([21]; 17,978, 24 h): 16 µg/mL | MBC ([22]; 24 h): 32 µg/mL | MBC ([23]; 24 h): 32 µg/mL

Sequence: GLFGKLIKKFGRKAISYAVKKARGKH [Latarcin 2a]
MIC ([1]; strain D29, broth microdilution, LB, 24 h 37 °C): 8 µg/mL | MBC ([1]; strain D29, subculture on LB agar, 24 h 37 °C): 16 µg/mL | MIC ([2]; strain AL87, broth microdilution, LB, 24 h 37 °C): 4 µg/mL | MBC ([2]; strain AL87, subculture on LB agar, 24 h 37 °C): 4 µg/mL | MIC ([3]; strain Y92, broth microdilution, LB, 24 h 37 °C): 8 µg/mL | MBC ([3]; strain Y92, subculture on LB agar, 24 h 37 °C): 8 µg/mL | MIC ([4]; strain AN10, broth microdilution, LB, 24 h 37 °C): 4 µg/mL | MBC ([4]; strain AN10, subculture on LB agar, 24 h 37 °C): 4 µg/mL | MBC [5, 24]: 16 µg/mL | MIC ([5]; broth microdilution (CLSI, modified), LB medium, 5 × 10^5 CFU/mL, 24 h at 37 °C, triplicate): 16 µg/mL | MIC ([6]; strain AE6, broth microdilution, LB, 24 h 37 °C): 8 µg/mL | MBC ([6]; strain AE6, subculture on LB agar, 24 h 37 °C): 8 µg/mL | MIC (MDRAB clinical strain K2; strain K2, broth microdilution, LB, 24 h 37 °C): 64 µg/mL | MBC (MDRAB clinical strain K2; strain K2, subculture on LB agar, 24 h 37 °C): 64 µg/mL | MIC ([7]; strain AF93, broth microdilution, LB, 24 h 37 °C): 8 µg/mL | MBC ([7]; strain AF93, subculture on LB agar, 24 h 37 °C): 8 µg/mL | MIC ([8]; strain U95, broth microdilution, LB, 24 h 37 °C): 16 µg/mL | MBC ([8]; strain U95, subculture on LB agar, 24 h 37 °C): 16 µg/mL | MIC ([9]; strain AE5, broth microdilution, LB, 24 h 37 °C): 8 µg/mL | MBC ([9]; strain AE5, subculture on LB agar, 24 h 37 °C): 8 µg/mL | MIC ([10]; strain AF12, broth microdilution, LB, 24 h 37 °C): 8 µg/mL | MBC ([10]; strain AF12, subculture on LB agar, 24 h 37 °C): 8 µg/mL | MIC ([11]; strain J49, broth microdilution, LB, 24 h 37 °C): 64 µg/mL | MBC ([11]; strain J49, subculture on LB agar, 24 h 37 °C): 64 µg/mL | MIC ([12]; strain AZ93, broth microdilution, LB, 24 h 37 °C): 8 µg/mL | MBC ([12]; strain AZ93, subculture on LB agar, 24 h 37 °C): 8 µg/mL | MIC ([13]; strain O59, broth microdilution, LB, 24 h 37 °C): 16 µg/mL | MBC ([13]; strain O59, subculture on LB agar, 24 h 37 °C): 16 µg/mL | MIC ([14]; strain W11, broth microdilution, LB, 24 h 37 °C): 8 µg/mL | MBC ([14]; strain W11, subculture on LB agar, 24 h 37 °C): 8 µg/mL | MIC ([15]; strain AG51, broth microdilution, LB, 24 h 37 °C): 4 µg/mL | MBC ([15]; strain AG51, subculture on LB agar, 24 h 37 °C): 4 µg/mL | MIC ([16]; strain L87, broth microdilution, LB, 24 h 37 °C): 16 µg/mL | MBC ([16]; strain L87, subculture on LB agar, 24 h 37 °C): 16 µg/mL | MIC ([17]; strain AF11, broth microdilution, LB, 24 h 37 °C): 8 µg/mL | MBC ([17]; strain AF11, subculture on LB agar, 24 h 37 °C): 8 µg/mL | MIC ([18]; strain AK61, broth microdilution, LB, 24 h 37 °C): 8 µg/mL | MBC ([18]; strain AK61, subculture on LB agar, 24 h 37 °C): 8 µg/mL | MIC ([19]; strain AK29, broth microdilution, LB, 24 h 37 °C): 8 µg/mL | MBC ([19]; strain AK29, subculture on LB agar, 24 h 37 °C): 8 µg/mL | MIC ([20]; strain AS40, broth microdilution, LB, 24 h 37 °C): 8 µg/mL | MBC ([20]; strain AS40, subculture on LB agar, 24 h 37 °C): 8 µg/mL | MBC [21, 24]: 16 µg/mL | MIC ([21]; broth microdilution (CLSI, modified), LB medium, 5 × 10^5 CFU/mL, 24 h at 37 °C, lowest concentration with no visible growth, triplicate): 16 µg/mL | MIC ([22]; strain U80, broth microdilution, LB, 24 h 37 °C): 16 µg/mL | MBC ([22]; strain U80, subculture on LB agar, 24 h 37 °C): 16 µg/mL | MIC ([23]; strain AO80, broth microdilution, LB, 24 h 37 °C): 8 µg/mL | MBC ([23]; strain AO80, subculture on LB agar, 24 h 37 °C): 8 µg/mL
